Reference: US20260083851A1 (AVILAR THERAPEUTICS, INC., priority 2022, published 2026)
Read-outs that look alike come from different tables or passages of the source.

Biological target: T1, ASGP receptor (biotinylated ASGPR) (Homo sapiens, UniProt P07306)
T1 construct: biotin (biotinylated)
T1 sequence (P07306 1-291): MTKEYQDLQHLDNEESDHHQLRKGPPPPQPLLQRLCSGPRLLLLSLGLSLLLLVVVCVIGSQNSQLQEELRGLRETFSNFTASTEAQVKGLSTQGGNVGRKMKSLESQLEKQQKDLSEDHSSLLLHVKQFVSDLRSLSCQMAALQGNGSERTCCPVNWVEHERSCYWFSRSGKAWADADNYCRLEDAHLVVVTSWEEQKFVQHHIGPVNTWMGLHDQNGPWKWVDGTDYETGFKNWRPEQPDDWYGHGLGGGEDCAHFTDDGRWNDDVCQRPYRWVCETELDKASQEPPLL
Format: binding
Conditions: SPR, Biacore 8K, 25° C.

[1] = Table 1B, numeric bound, read-out: ASGPR Kd
[2] = Table 1C, numeric bound, read-out: ASGPR KD

| SMILES | Kd (Table 1C, read-out: ASGPR KD) | other results |
| --- | --- | --- |
| OC[C@H]1OC[C@H](N(CC2CC2)CC2CC2)[C@@H](O)[C@H]1O [A160, (2R,3R,4R,5S)-5-(bis(cyclopropylmethyl)amino)-2-(hydroxymethyl)tetrahydro-2H-pyran-3,4-diol] |  | Kd [1]: > 30 µM |
| OC[C@H]1OC[C@H](Sc2cccc(C(F)(F)F)n2)[C@@H](O)[C@H]1O [A161, (2R,3R,4S,5S)-2-(hydroxymethyl)-5-((6-(trifluoromethyl)pyridin-2-yl)thio)tetrahydro-2H-pyran-3,4-diol] |  | Kd (Table 1B, read-out: ASGPR Kd): < 10 µM |
| O[C@@H]1[C@H](O)[C@@H](Nc2cncc(C(F)(F)F)n2)CO[C@@H]1CF [A162, (2S,3R,4R,5S)-2-(fluoromethyl)-5-((6-(trifluoromethyl)pyrazin-2-yl)amino)tetrahydro-2H-pyran-3,4-diol] |  | Kd (Table 1B, read-out: ASGPR Kd): < 10 µM |
| CC(C)N[C@H]1CO[C@H](CO)[C@H](O)[C@@H]1O [A163, (2R,3R,4R,5S)-2-(hydroxymethyl)-5-(isopropylamino)tetrahydro-2H-pyran-3,4-diol] |  | Kd [1]: > 30 µM |
| COc1cccc(N[C@H]2CO[C@H](CO)[C@H](O)[C@@H]2O)n1 [A164, (2R,3R,4R,5S)-2-(hydroxymethyl)-5-((6-methoxypyridin-2-yl)amino)tetrahydro-2H-pyran-3,4-diol] |  | Kd (Table 1B, read-out: ASGPR Kd): < 10 µM |
| NCc1ccc(N2CCC(CN3CCN(C[C@H]4OC[C@H](Nc5cncc(C(F)(F)F)n5)[C@@H](O)[C@H]4O)CC3)CC2)cc1 [A165, (2R,3R,4R,5S)-2-((4-((1-(4-(aminomethyl)phenyl)piperidin-4-yl)methyl)piperazin-1-yl)methyl)-5-((6-(trifluoromethyl)pyrazin-2-yl)amino)tetrahydro-2H-pyran-3,4-diol] |  | Kd (Table 1B, read-out: ASGPR Kd): < 10 µM |
| OC[C@H]1OC[C@H](NC2CCC2)[C@@H](O)[C@H]1O [A166, (2R,3R,4R,5S)-5-(cyclobutylamino)-2-(hydroxymethyl)tetrahydro-2H-pyran-3,4-diol] |  | Kd [1]: > 30 µM |
| O[C@@H]1[C@H](O)[C@@H](Nc2cncc(C(F)(F)F)n2)CO[C@@H]1C(F)F [A179, (2S,3R,4R,5S)-2-(difluoromethyl)-5-((6-(trifluoromethyl)pyrazin-2-yl)amino)tetrahydro-2H-pyran-3,4-diol] | < 10 µM |  |
| Cc1cncc(N[C@H]2CO[C@H](CO)[C@H](O)[C@@H]2O)n1 [A180, (2R,3R,4R,5S)-2-(hydroxymethyl)-5-((6-methylpyrazin-2-yl)amino)tetrahydro-2H-pyran-3,4-diol] | < 10 µM |  |
| OC[C@H]1OC[C@H](Nc2ncc3c(n2)CCC3)[C@@H](O)[C@H]1O [A182, (2R,3R,4R,5S)-5-((6,7-dihydro-5H-cyclopenta[d]pyrimidin-2-yl)amino)-2-(hydroxymethyl)tetrahydro-2H-pyran-3,4-diol] |  | Kd [2]: > 30 µM |
| OC[C@H]1OC[C@H](Nc2ncc3cn[nH]c3n2)[C@@H](O)[C@H]1O [A183, (2R,3R,4R,5S)-5-((1H-pyrazolo[3,4-d]pyrimidin-6-yl)amino)-2-(hydroxymethyl)tetrahydro-2H-pyran-3,4-diol] |  | Kd [2]: > 30 µM |
| OC[C@H]1OC[C@H](Nc2ncc3cc[nH]c3n2)[C@@H](O)[C@H]1O [A184, (2R,3R,4R,5S)-5-((7H-pyrrolo[2,3-d]pyrimidin-2-yl)amino)-2-(hydroxymethyl)tetrahydro-2H-pyran-3,4-diol] |  | Kd [2]: > 30 µM |
| OC[C@H]1OC[C@H](Nc2cccc(OC(F)F)n2)[C@@H](O)[C@H]1O [A185, (2R,3R,4R,5S)-5-((6-(difluoromethoxy)pyridin-2-yl)amino)-2-(hydroxymethyl)tetrahydro-2H-pyran-3,4-diol] | < 10 µM |  |
| O=C(O)c1ccc(OC[C@H]2OC[C@H](Nc3cncc(C(F)(F)F)n3)[C@@H](O)[C@H]2O)nn1 [A186, 6-(((2R,3R,4R,5S)-3,4-dihydroxy-5-((6-(trifluoromethyl)pyrazin-2-yl)amino)tetrahydro-2H-pyran-2-yl)methoxy)pyridazine-3-carboxylic acid] | < 10 µM |  |
| O=C(O)c1cnc(OC[C@H]2OC[C@H](Nc3cncc(C(F)(F)F)n3)[C@@H](O)[C@H]2O)cn1 [A187, 5-(((2R,3R,4R,5S)-3,4-dihydroxy-5-((6-(trifluoromethyl)pyrazin-2-yl)amino)tetrahydro-2H-pyran-2-yl)methoxy)pyrazine-2-carboxylic acid] | < 10 µM |  |
| N#Cc1ccc(OC[C@H]2OC[C@H](Nc3cncc(C(F)(F)F)n3)[C@@H](O)[C@H]2O)nn1 [A188, 6-(((2R,3R,4R,5S)-3,4-dihydroxy-5-((6-(trifluoromethyl)pyrazin-2-yl)amino)tetrahydro-2H-pyran-2-yl)methoxy)pyridazine-3-carbonitrile] | < 10 µM |  |

| SMILES | Kd (Table 1C, read-out: ASGPR KD) | other results |
| --- | --- | --- |
| CC#Cc1cccc(N[C@H]2CO[C@H](CO)[C@H](O)[C@@H]2O)n1 [A189, (2R,3R,4R,5S)-2-(hydroxymethyl)-5-((6-(prop-1-yn-1-yl)pyridin-2-yl)amino)tetrahydro-2H-pyran-3,4-diol] |  | Kd [2]: > 30 µM |
| O[C@@H]1[C@H](O)[C@@H](Oc2cccc(C(F)(F)F)n2)CO[C@@H]1COc1ccc(-c2ccccc2)cc1 [A190, (2R,3R,4S,5S)-2-(([1,1′-biphenyl]-4-yloxy)methyl)-5-((6-(trifluoromethyl)pyridin-2-yl)oxy)tetrahydro-2H-pyran-3,4-diol] | < 10 µM |  |
| NC[C@H]1OC[C@H](Oc2cccc(C(F)(F)F)n2)[C@@H](O)[C@H]1O [A192, (2R,3R,4S,5S)-2-(aminomethyl)-5-((6-(trifluoromethyl)pyridin-2-yl)oxy)tetrahydro-2H-pyran-3,4-diol] | < 10 µM |  |
| CC(C)(C)OC(=O)N1CCC(n2cc([C@H]3OC[C@H](Nc4cncc(C(F)(F)F)n4)[C@@H](O)[C@H]3O)nn2)CC1 [A193, tert-butyl 4-(4-((2R,3R,4R,5S)-3,4-dihydroxy-5-((6-(trifluoromethyl)pyrazin-2-yl)amino)tetrahydro-2H-pyran-2-yl)-1H-1,2,3-triazol-1-yl)piperidine-1-carboxylate] | < 10 µM |  |
| O=C(O)c1cnc(OC[C@H]2OC[C@H](Nc3cncc(C(F)(F)F)n3)[C@@H](O)[C@H]2O)nc1 [A194, 2-(((2R,3R,4R,5S)-3,4-dihydroxy-5-((6-(trifluoromethyl)pyrazin-2-yl)amino)tetrahydro-2H-pyran-2-yl)methoxy)pyrimidine-5-carboxylic acid] | < 10 µM |  |
| CC(C)(C)OC(=O)N1CC=C(c2cccc(N[C@H]3CO[C@H](CO)[C@H](O)[C@@H]3O)n2)CC1 [A195, tert-butyl 6-(((3S,4R,5R,6R)-4,5-dihydroxy-6-(hydroxymethyl)tetrahydro-2H-pyran-3-yl)amino)-3′,6′-dihydro-[2,4′-bipyridine]-1′(2′H)-carboxylate] | < 10 µM |  |
| O[C@@H]1[C@H](O)[C@@H](Nc2cccc(C(F)(F)F)n2)CO[C@@H]1COc1ccc(-c2ccccc2)cc1 [A196, (2R,3R,4R,5S)-2-(([1,1′-biphenyl]-4-yloxy)methyl)-5-((6-(trifluoromethyl)pyridin-2-yl)amino)tetrahydro-2H-pyran-3,4-diol] | < 10 µM |  |
| OC[C@H]1OC[C@H](Nc2ncc3nc[nH]c3n2)[C@@H](O)[C@H]1O [A197, (2R,3R,4R,5S)-5-((9H-purin-2-yl)amino)-2-(hydroxymethyl)tetrahydro-2H-pyran-3,4-diol] |  | Kd [2]: > 30 µM |
| O[C@@H]1[C@H](O)[C@@H](Oc2cccc(C(F)(F)F)n2)CO[C@@H]1COc1ccc(Br)c(F)c1 [A198, (2R,3R,4S,5S)-2-((4-bromo-3-fluorophenoxy)methyl)-5-((6-(trifluoromethyl)pyridin-2-yl)oxy)tetrahydro-2H-pyran-3,4-diol] | < 10 µM |  |
| O=C(O)c1ccc(CN2CCN(C[C@H]3OC[C@H](Nc4cncc(C(F)(F)F)n4)[C@@H](O)[C@H]3O)CC2)cc1 [A199, 4-((4-(((2R,3R,4R,5S)-3,4-dihydroxy-5-((6-(trifluoromethyl)pyrazin-2-yl)amino)tetrahydro-2H-pyran-2-yl)methyl)piperazin-1-yl)methyl)benzoic acid] | < 10 µM |  |
| O[C@@H]1[C@H](O)[C@@H](Nc2cncc(C(F)(F)F)n2)CO[C@@H]1c1cn(C2CCNCC2)nn1 [A200, (2R,3R,4R,5S)-2-(1-(piperidin-4-yl)-1H-1,2,3-triazol-4-yl)-5-((6-(trifluoromethyl)pyrazin-2-yl)amino)tetrahydro-2H-pyran-3,4-diol] | < 10 µM |  |
| O[C@@H]1[C@H](O)[C@@H](Nc2cncc(C(F)(F)F)n2)CO[C@@H]1c1cn(-c2ccccc2)nn1 [A201, (2R,3R,4R,5S)-2-(1-phenyl-1H-1,2,3-triazol-4-yl)-5-((6-(trifluoromethyl)pyrazin-2-yl)amino)tetrahydro-2H-pyran-3,4-diol] | < 10 µM |  |
| O[C@@H]1[C@H](O)[C@@H](Nc2cncc(C(F)(F)F)n2)CO[C@@H]1COc1ccc(-c2ccccc2)cc1 [A202, (2R,3R,4R,5S)-2-(([1,1′-biphenyl]-4-yloxy)methyl)-5-((6-(trifluoromethyl)pyrazin-2-yl)amino)tetrahydro-2H-pyran-3,4-diol] | < 10 µM |  |
| N#Cc1ncc(OC[C@H]2OC[C@H](Nc3cncc(C(F)(F)F)n3)[C@@H](O)[C@H]2O)cn1 [A203, 5-(((2R,3R,4R,5S)-3,4-dihydroxy-5-((6-(trifluoromethyl)pyrazin-2-yl)amino)tetrahydro-2H-pyran-2-yl)methoxy)pyrimidine-2-carbonitrile] | < 10 µM |  |
| O=C(O)c1ccc(CN2CCN(C[C@H]3OC[C@H](Nc4cncc(C(F)(F)F)n4)[C@@H](O)[C@H]3O)CC2)cc1F [A204, 4-((4-(((2R,3R,4R,5S)-3,4-dihydroxy-5-((6-(trifluoromethyl)pyrazin-2-yl)amino)tetrahydro-2H-pyran-2-yl)methyl)piperazin-1-yl)methyl)-2-fluorobenzoic acid] | < 10 µM |  |
